Measured values reported in patent US11857600B2, “GPCR heteromer inhibitors and uses thereof” (GPCR THERAPEUTICS, INC., priority 2017, dated 2024).
Entries after “also recorded” stand apart in the source; their conditions may differ. Blank lines part the entries; values can stand above or below the compound they belong to.

Columns and labels:
CXCR4-CHRM1 heteromer [1] = molecular target: T1, CXCR4-CHRM1 heteromer (Homo sapiens, UniProt P11229); experiment: Internalization inhibition assay, CXCR4-GFP U-2 OS cells transduced with CHRM1; assay type: cell-based; settings: 20 minutes
T1 construct: expressed in transfected cells; host or cells: U-2 OS cells stably expressing CXCR4-GFP, transduced with CHRM1 adenovirus
Experimental: Cells co-expressing CXCR4-GFP and GPCRx are treated with CXCL12 (SDF-1) and/or GPCRx specific antagonist.
(FIG. 10A) CXCR4-ADRB2; (FIG. 10B) CXCR4-CHRM1; and (FIG. 10C) CXCR4-HRH1. (FIG. 10A) CXCR4-GFP expressing U-2 OS cells were transduced with adenovirus encoding ADRB2. […] (FIG. 10B) CXCR4-GFP expressing U-2 OS cells were transduced with adenovirus encoding CHRM1. […] (FIG. 10C) CXCR4-GFP expressing U-2 OS cells were transduced with adenovirus encoding HRH1.
U-2 OS cells stably expressing CXCR4-GFP were transduced with Adenoviruses encoding GPCRx (ADRB2, CHRM1, HRH1). After 2 days, images were obtained before and 20 minutes after stimulating cells with CXCR4-specific agonist, CXCL12 (SDF-1) (20 nM), and/or GPCRx-specific antagonist (10 μM). Internalization of CXCR4-GFP was observed as GFP granules using IN Cell Analyzer 2500. Loss of GFP expression on the cell surface or appearance of GFP granules inside the cells were considered as CXCR4-GFP co-internalization.
CXCR4-GFP expressed U-2 OS cells were seeded at a density of 5000 cells per well in a black 96-well clear-bottom plate in 100 μl of McCoy's 5A medium supplemented with 10% FBS. On the following day, the cells were transduced with adenoviruses encoding GPCRx (30 MOI). Two days post-transduction, cells were stimulated with SDF-1 and/or GPCRx agonists for 20 min and fixed with 4% paraformaldehyde.

[2] = tested on: patient derived cells (PDCs); experiment: Proliferation assay (ATPlite), survival of glioblastoma patient derived cells; assay type: cell-based; settings: Homo sapiens, 168 h, 7 days, read-out: IC50, survival of PDC
Experimental: We prepared single cell suspensions of resected and dissociated glioblastoma tissues from patients. (provided by Samsung Seoul hospital in Seoul, Korea) These cells were cultured under conditions optimal for propagation and non-differentiation of normal neuronal stem cell. Media were composed serum free Neurobasal media supplemented with basic FGF and EGF.
After the 7-day incubation, 15 μl ATPlite was added into the each well and the plate were shaken for 5 minutes in an orbital shaker at 700 rpm. The luminescent signal was detected within 30 minutes at PerkinElmer TopCount detection instrument. The cell viability was calculated using the equation: Cell viability(%)=(OD of antagonist treatment/OD of DMSO only treatment)×100%.
PDCs were seeded in 384-well plate at 500 ea/well in 40 ul culture media. After overnight growth, the cells were cultured for 7 days in the presence of several dose of GPCRx antagonist or DMSO alone. […] The luminescent signal was detected within 30 minutes at PerkinElmer TopCount detection instrument. The cell viability was calculated using the equation: Cell viability (%)=(OD of antagonist treatment/OD of DMSO only treatment)×100%.

CXCR4-CHRM1 heteromer [3] = molecular target: CXCR4-CHRM1 heteromer (Homo sapiens, UniProt P11229+P61073); settings: antagonist 1 μM; FIG. 8B
Experimental: MDA-MB-231 cells were co-transduced with adenoviruses encoding CXCR4 and GPCRx. […] In F &G, cells were transduced with adenoviruses encoding CXCR4, and endogenous HRH1 responses were examined with 50 nM of histamine. Cells were incubated with Cal-520 AM for 2 hr, GPCR antagonists or vehicle for 30 min, and stimulated with indicated amounts of CXCL12, GPCRx agonist, or CXCL12 and GPCRx agonist.
The next day, cells were co-transduced with 10 MOI of CXCR4 and 30 MOI of HA-VC, 10 MOI of HA-VC and 30 MOI of GPCRx, or 10 MOI of CXCR4 and 30 MOI of GPCRx. Adenoviruses encoding HA-VC were used to adjust the total amount of adenoviruses transduced. After 2 days, cells were washed twice with assay buffer (Hank's balanced salt solution without phenol red, supplemented with 0.1% BSA and 20 mM HEPES, pH7.4), and stained with 5 μg/ml of Cal-520 AM (AAT Bioquest, Sunnyvale, CA, USA) diluted in assay buffer for 2 hr. Cells were washed with assay buffer three times, and incubated at 37° C. for another 30 min. Plate was loaded on a FlexStation 3 Multi-Mode Microplate Reader (Molecular Devices, Sunnyvale, CA, USA) and GPCRx agonists were added. […] Antagonists or vehicles were added 30 min before agonist treatment.

CXCR4-EDNRB heteromer = molecular target: T2, CXCR4-EDNRB heteromer (Homo sapiens, UniProt P24530+P61073); experiment: Calcium mobilization assay, enhanced signaling of CXCR4-EDNRB heteromer in MDA-MB-231 cells; assay type: cell-based; settings: antagonist(s) 1 μM; FIG. 8E
T2 construct: expressed in transfected cells
Experimental: (§1) The efficiency of CXCR4 inhibitors in suppressing the enhanced signaling of CXCR4-EDNRB heteromer was measured in the absence or presence of the representative EDNRB inhibitors ambrisentan or bosentan (Table 12). […] Inhibitors were treated 30 min before agonist stimulation. Ca2+ mobilization was measured as described in FIG. 5, and IC50 values were calculated using GraphPad Prism software.

CXCR4-HRH1 heteromer = molecular target: T3, CXCR4-HRH1 heteromer (Homo sapiens, UniProt P35367+P61073); experiment: Calcium mobilization assay, enhanced signaling of CXCR4-HRH1 heteromer in MDA-MB-231 cells; assay type: cell-based; settings: antagonist 1 μM; cells transduced with CXCR4, endogenous HRH1, 50 nM histamine; FIGS. 8F, 8G
T3 construct: expressed in transfected cells
Experimental: as §1, with “CXCR4-HRH1” for “CXCR4-EDNRB”, “HRH1” for “EDNRB”, “Hydroxyzine, Prometazine,” for “ambrisentan”, “Cyproheptadine” for “bosentan”, “8).” for “12).”

CXCR4-NTSR1 heteromer = molecular target: T4, CXCR4-NTSR1 heteromer (Homo sapiens, UniProt P30989+P61073); experiment: Calcium mobilization assay, enhanced signaling in MDA-MB-231 cells co-expressing CXCR4 and NTSR1; assay type: cell-based; settings: antagonist 1 μM; FIG. 8K
T4 construct: expressed in transfected cells

MDA-MB-231 cells = experiment: Chemotactic migration assay; assay type: cell-based, human; settings: cells transduced with 1 MOI CXCR4 lentivirus; CXCL12 30 nM, histamine 50 nM; pyrilamine 1 μM
Experimental: Chemotaxis was quantified by counting the migrated cells on the lower surface of the membrane of 10 fields per chamber. (FIG. 19A) A representative picture of each group. […] The data represent mean±SEM (n=3 or 5). Statistically significant differences were determined by Student's t test. *P<0.05.
Since MDA-MB-231 cells express about twice more HRH1 mRNA compared with CXCR4 mRNA when measured by RT-qPCR, the MDA-MB-231 cells were transduced with small amount of lentivirus encoding CXCR4 (1 MOI) and chemotactic migration of the cells toward CXCL12 and […] was measured (FIGS. 19A and 19B).
Transwell plates (8 μm pore size polycarbonate membrane, 6.5-mm diameter) were coated with 50 μg/mL collagen for 2 h at 37° C. (Corning Inc.). MDA-MB-231 cells were serum-starved 24 h and then plated in serum-free medium containing 0.5% BSA in the top chamber (20,000 cells/100 μL). Antagonists or inverse agonists were added to the cells 30 min before plating the cells in the transwell plates. Attractants were added in the bottom chamber. Antagonists or inverse agonists were also included in the bottom chamber. After 3 h at 37° C., cells on the top transwell membrane were removed using a cotton swab, fixed, and stained with 0.1% Crystal violet. Chemotaxis was quantified by counting the migrated cells on the lower surface of the membrane of 10 fields per chamber at 10× objective.

CXCR4 = molecular target: T5, CXCR4 (Homo sapiens, UniProt P61073); experiment: Calcium mobilization assay in MDA-MB-231 cells expressing CXCR4 alone; assay type: cell-based; settings: approximate; concentration used to stimulate the cells; read-out: EC50 concentration against CXCR4
T5 construct: expressed in transfected cells
Experimental: The cells were then stained with Cal-6 for 2 hours and stimulated with CXCR4 agonsit (CXCL12; 20 nM) and ADRB2 agonist (Salmeterol; 1 μM).

[4] = tested on: A549-CXCR4-ADRB2 cell line stably overexpressing CXCR4-ADRB2 heteromer; experiment: Anti-tumor effect in nude mice transplanted with A549-CXCR4-ADRB2 cells; assay type: in vivo, mouse; settings: LY2510924 3 mg/kg subcutaneously, Carvedilol 30 mg/kg orally, once a day; vehicle 554.2±152.7
Experimental: To investigate the anti-tumor effect of CXCR4-ADRB2 heteromer inhibitors on tumor growth, the A549-CXCR4-ADRB2, stably overexpressing CXCR4-ADRB2 heteromer (1×10^7 cell/head) was injected subcutaneously in nude mice. When tumor sizes were reached an average of 50-100 mm^3, CXCR4 inhibitor, ADRB2 inhibitor alone or combination of CXCR4 and ADRB2 inhibitors were treated.
The tumor growth was monitored every third or fourth day by measuring the length (L) and width (W) of the tumor and calculating tumor volume based on the following formula: Volume=0.5 LW^2.
Five week-old, female Balb/c-nu/nu mice were obtained from Envigo (France) and maintained in specific pathogen-free animal facility. All protocols for animal use and euthanasia were approved by the Qubest Bio (South Korea) Animal Experimental Ethics Committee based on the Animal Protection Act. The 1×10^7 cells of A549, A549-CXCR4 or A549-CXCR4-ADRB2 were suspended in 100 μL of phosphate-buffered saline (PBS) and were implanted by subcutaneously in axillary region between the clavicular and chest wall on the right side of the mouse. The tumor growth was monitored every third or fourth day by measuring the length (L) and width (W) of the tumor with an electronic caliper and calculating tumor volume in the basis of the following formula: Volume=0.5 LW^2.
For the antitumor efficacy test using CXCR4 and ADRB2 inhibitor, A549-CXCR4-ADRB2 cell line overexpressing CXCR4 and ADRB2 in A549, lung cancer cell line was subcutaneously administered (1×10^7 cell in 100 μL PBS/head) to BALB/c-nu. […] The tumor growth was monitored every third or fourth day by measuring the length (L) and width (W) of the tumor: Volume=0.5 LW^2.

T1 sequence (P11229 whole entry): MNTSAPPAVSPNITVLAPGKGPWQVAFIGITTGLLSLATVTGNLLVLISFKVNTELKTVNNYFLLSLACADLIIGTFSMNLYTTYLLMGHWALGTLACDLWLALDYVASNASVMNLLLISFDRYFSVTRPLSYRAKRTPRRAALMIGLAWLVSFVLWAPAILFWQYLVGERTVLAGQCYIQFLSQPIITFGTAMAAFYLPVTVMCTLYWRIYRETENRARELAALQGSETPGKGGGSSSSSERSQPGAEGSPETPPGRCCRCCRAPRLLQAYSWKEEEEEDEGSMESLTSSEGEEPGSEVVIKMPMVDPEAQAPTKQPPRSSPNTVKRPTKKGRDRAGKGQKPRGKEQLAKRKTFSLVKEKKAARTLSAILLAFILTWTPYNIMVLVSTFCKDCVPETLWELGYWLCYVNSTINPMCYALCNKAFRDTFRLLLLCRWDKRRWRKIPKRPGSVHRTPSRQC
T1 sequence (P61073 whole entry partner): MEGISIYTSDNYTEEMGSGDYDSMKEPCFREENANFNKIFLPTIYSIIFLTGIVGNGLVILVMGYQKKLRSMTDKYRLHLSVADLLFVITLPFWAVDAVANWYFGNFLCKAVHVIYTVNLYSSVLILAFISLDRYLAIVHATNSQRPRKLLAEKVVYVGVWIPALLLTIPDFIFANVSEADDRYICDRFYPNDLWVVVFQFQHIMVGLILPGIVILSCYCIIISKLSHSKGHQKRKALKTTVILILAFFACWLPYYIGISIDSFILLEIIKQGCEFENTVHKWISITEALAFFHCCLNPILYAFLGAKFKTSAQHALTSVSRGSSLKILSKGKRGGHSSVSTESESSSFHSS
T5 sequence (P61073 whole entry): as the sequence (P61073 whole entry partner) above
T4 sequence (P61073 whole entry): as the sequence (P61073 whole entry partner) above
T4 sequence (P30989 whole entry): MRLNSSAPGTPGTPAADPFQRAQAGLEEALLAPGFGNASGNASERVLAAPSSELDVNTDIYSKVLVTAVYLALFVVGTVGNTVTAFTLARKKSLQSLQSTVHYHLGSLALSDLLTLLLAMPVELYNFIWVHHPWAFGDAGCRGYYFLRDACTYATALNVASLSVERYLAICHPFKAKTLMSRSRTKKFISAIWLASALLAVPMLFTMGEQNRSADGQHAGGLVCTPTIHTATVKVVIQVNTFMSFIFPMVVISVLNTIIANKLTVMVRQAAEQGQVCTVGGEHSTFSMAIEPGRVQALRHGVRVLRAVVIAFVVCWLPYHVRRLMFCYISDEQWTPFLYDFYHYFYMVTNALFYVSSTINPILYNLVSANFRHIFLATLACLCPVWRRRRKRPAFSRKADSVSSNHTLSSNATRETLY
T2 sequence (P61073 whole entry): as the sequence (P61073 whole entry partner) above
T2 sequence (P24530 27-442): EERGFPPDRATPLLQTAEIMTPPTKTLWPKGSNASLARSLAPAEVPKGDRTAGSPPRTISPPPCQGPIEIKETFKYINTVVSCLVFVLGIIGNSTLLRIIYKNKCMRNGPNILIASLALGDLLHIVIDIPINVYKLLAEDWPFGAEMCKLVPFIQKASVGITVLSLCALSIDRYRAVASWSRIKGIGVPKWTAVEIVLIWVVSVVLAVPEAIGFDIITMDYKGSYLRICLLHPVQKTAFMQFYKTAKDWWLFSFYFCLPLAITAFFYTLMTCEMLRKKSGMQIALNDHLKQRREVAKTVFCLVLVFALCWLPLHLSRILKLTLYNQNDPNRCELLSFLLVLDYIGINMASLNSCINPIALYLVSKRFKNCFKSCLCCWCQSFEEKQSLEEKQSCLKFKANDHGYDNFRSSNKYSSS
CXCR4-CHRM1 heteromer (Homo sapiens, UniProt P11229+P61073), sequence (P61073 whole entry): as the sequence (P61073 whole entry partner) above
CXCR4-CHRM1 heteromer (Homo sapiens, UniProt P11229+P61073), sequence (P11229 whole entry): as the sequence (P11229 whole entry) above
T3 sequence (P61073 whole entry): as the sequence (P61073 whole entry partner) above
T3 sequence (P35367 whole entry): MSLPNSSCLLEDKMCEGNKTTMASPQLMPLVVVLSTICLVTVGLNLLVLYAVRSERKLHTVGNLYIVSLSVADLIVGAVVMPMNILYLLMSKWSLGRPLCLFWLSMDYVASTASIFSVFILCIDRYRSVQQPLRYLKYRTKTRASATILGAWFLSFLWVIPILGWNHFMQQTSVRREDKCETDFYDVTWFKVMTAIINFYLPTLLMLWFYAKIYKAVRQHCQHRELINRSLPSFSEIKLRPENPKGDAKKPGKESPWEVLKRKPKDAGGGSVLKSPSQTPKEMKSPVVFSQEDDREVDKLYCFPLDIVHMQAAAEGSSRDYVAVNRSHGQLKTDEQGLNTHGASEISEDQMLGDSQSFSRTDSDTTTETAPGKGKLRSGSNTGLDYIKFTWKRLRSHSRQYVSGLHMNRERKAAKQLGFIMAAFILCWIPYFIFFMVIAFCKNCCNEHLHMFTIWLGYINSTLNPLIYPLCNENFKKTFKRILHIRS

Compound: OC(c1ccccc1)(c1ccccc1)C12CC[N+](CCOCc3ccccc3)(CC1)CC2 [Umeclidinium]
inhibition of CXCL12 induced CXCR4-CHRM1 internalization (CXCR4-CHRM1 heteromer [1]; CXCL12 20 nM with antagonist 10 μM): inhibited CXCL12 induced CXCR4-CHRM1 internalization | internalization of CXCR4-CHRM1 by antagonist alone (CXCR4-CHRM1 heteromer [1]; antagonist 10 μM): did not induce internalization; also recorded: had no effect on the internalization of the heteromer | IC50 [2]: 4.03 µM

Compound: O=C(CCNS(=O)(=O)c1cccc2nsnc12)N1CCN(c2ccncc2)CC1 [VU0255035]
suppression of enhanced calcium signaling upon co-stimulation with CXCL12 and CHRM1 agonist (CXCR4-CHRM1 heteromer [3]): suppressed the enhanced calcium signaling significantly

Compound: COc1ccccc1Oc1c(NS(=O)(=O)c2ccc(C(C)(C)C)cc2)nc(-c2ncccn2)nc1OCCO [bosentan]
suppression of enhanced calcium response upon co-stimulation with CXCL12 and EDNRB agonist (CXCR4-EDNRB heteromer): failed to inhibit enhanced calcium response significantly

Compound: O=C(O)COCCN1CCN(C(c2ccccc2)c2ccc(Cl)cc2)CC1 (stereo not shown) [cetirizine]
suppression of enhanced calcium signaling upon co-stimulation with CXCL12 and histamine (CXCR4-HRH1 heteromer): suppressed the enhanced calcium signaling significantly

Compound: COc1cccc(OC)c1-c1cc(C(=O)NC2(C(=O)O)C3CC4CC(C3)CC2C4)nn1-c1ccnc2cc(Cl)ccc12 (stereo not shown) [meclinertant]
suppression of enhanced calcium signaling upon co-stimulation with CXCL12 and NTSR1 agonist (CXCR4-NTSR1 heteromer): suppressed the enhanced calcium signaling significantly

Compound: COc1ccc(CN(CCN(C)C)c2ccccn2)cc1 [pyrilamine]
effect on enhanced migration upon co-stimulation with CXCL12 and histamine (MDA-MB-231 cells): completely abolished the enhanced response; also recorded: failed to enhance the cell migration elicited by CXCL12

EC50 (CXCR4): ~0.015 µM
Compound: CXCL12: C-X-C Motif Chemokine ligand 12, CXCR4 agonist

Compound: LY2510924
average tumor volume at day 21 post-treatment [4]: 488.9±135.2 mm^3
